Source: patent US20230321064A1, “Products for Treating the JNCL Disease” (Beyond Batten Disease Foundation, priority 2020, published 2023)
“Also recorded” adds a separate entry of the source. Read-outs that look alike come from different tables or passages of the source.

How the values were obtained:
[1] = tested on: purified trehalase; assay: In vitro colorimetric trehalase assay (glucose generation, 340 nm); format: biochemical; settings: in the presence of miglustat; 340 nm absorbance
Protocol: To this aim, an in vitro colorimetric assay was performed to measure the rate of generation of glucose, the product of trehalose hydrolysis by trehalase. In the absence of miglustat, trehalose was rapidly hydrolysed by purified trehalase, and the glucose produced could be quantified at 340 nm absorbance. In the test conditions, the amounts of glucose detected increased over time to reach a plateau in […].

[2] = tested on: Cln3^Δex7-8 mice; assay: Neuronal cell death, cleaved caspase-3 immunohistology in brain sections; format: in vivo, mouse; settings: for cell death (cleaved CAS-3) in the VPM/VPL region: 12 months of age, oral, 2% Trehalose in drinking water, Miglustat in chow (FIG. 1E)
Protocol: (§1) Cln3^Δex7-8 mice were obtained from the Jackson Laboratory. Control (C57BL/6J) and Cln3^Δex7-8 mice were housed 3-4 per cage in a room with a 12-h light/12-h dark cycle. Food and water were provided ad libitum. All mice used in this study were analyzed at 8 and 12 months of age and were littermates produced by crossing heterozygous Cln3^Δex7-8 mice. Only males were used for this analysis. Investigators were blinded when analyzing the data, and no randomization was necessary.
(§2) For oral administration, Trehalose was dissolved in drinking water to a final concentration of 2% and changed twice a week. Trehalose-containing water was given to Cln3^Δex7-8 mice and WT mice by spontaneous oral administration starting at 21 days of age and continuing until the day the mice were sacrificed for neuropathology studies.
(§3) Miglustat was administered in mixture with the food pellet starting at 21 days of age and continuing until the day the mice were sacrificed for neuropathology studies. Miglustat food was prepared by TestDiet using the 5V5R rodent diet (LabDiet). Two concentrations were used: 1.2 g/Kg chow (indicated as “low concentration”) and 7.2 g/Kg chow (indicated as “high concentration”) and two separate groups of Cln3^Δex7-8 mice were fed with either diet. One additional group of Cln3^Δex7-8 l mice was fed with a combination of the low-concentration Miglustat food and 2% Trehalose water.
(§4) Twelve-month-old homozygous Cln3^Δex7-8 mice and age-matched controls (WT mice) were anaesthetized with isoflurane and transcardially perfused with PBS followed by 4% buffered paraformaldehyde in 0.1 M sodium phosphate buffer, pH 7.4. Brains were subsequently removed and postfixed overnight. Before sectioning, the brains were cryoprotected in a solution containing 30% sucrose in Tris-buffered saline (TBS: 50 mM Tris, pH 7.6). Consecutive 40 μm floating coronal sections were collected in 96-well plates. Series of sections were then stained with primary antisera against CD68 (AbD
(§5) Serotec, Cat. No. MCA1957), GFAP (DAKO, Cat. No. Z0334), Subunit C of mitochondrial ATP synthase (SCMAS; Abcam, Cat. No. ab181243), or cleaved caspase 3 (Asp175) (Cell Signaling, Cat. No. 9661S) followed by either rabbit anti-rat (VectorLab) or swine anti-rabbit (DAKO) secondary antibodies, and immunoreactivity detected with Vectastain ABC (avidin-biotin) kit (Vector) and diaminobenzidine as a chromogen.
(§6) Non-overlapping images were captured, on three consecutive sections, through each region of interest. All RGB images were captured via a live video camera (JVC, 3CCD, KY-F55B), mounted onto a Zeiss Axioplan microscope using a x 40 objective and saved as JPEGs. All parameters including lamp intensity, video camera set-up and calibration were maintained constant throughout image capturing. For quantification of storage and inflammation, images were analyzed using ImageJ analysis software (NIH), using an appropriate threshold that selected the foreground immunoreactivity above background. This threshold was then applied as a constant to all subsequent images analyzed per batch of animals and reagent used to determine the specific area of immunoreactivity for each antigen in each region. Data were plotted graphically as the mean percentage area of immunoreactivity per field ±s.e.m. for each region. For quantification of cell death, images were analyzed manually and scored for the presence of apoptotic nuclei. Data were plotted graphically as the mean number of apoptotic cells per field ±s.e.m. for each region. […]

[3] = tested on: Cln3^Δex7-8 mice; assay: Microglial activation, CD68 immunohistochemistry in brain sections; format: in vivo, mouse
Protocol: as §1, §2, §3, §4, §5
as §6, with “Data were plotted graphically as the mean percentage area of immunoreactivity per field ±s.e.m. for each region.” left out, “nuclei.” for “nuclei. Data were plotted graphically as the mean number of apoptotic cells per field ±s.e.m. for each region.”
(S1BF), the primary visual (V1) cortex, and the dorsolateral geniculate (DLG) (Pontikis et al., 2005). To quantify microglial activation, antibodies against the microglial marker CD68 were used. […]

[4] = tested on: Cln3^Δex7-8 mice; assay: Astrocytosis, GFAP immunohistochemistry in brain sections; format: in vivo, mouse
Protocol: as §1, §2, §3, §4, §5
Non-overlapping images were captured, on three consecutive sections, through each region of interest. All RGB images were captured via a live video camera (JVC, 3CCD, KY-F55B), mounted onto a Zeiss Axioplan microscope using a x 40 objective and saved as JPEGs. All parameters including lamp intensity, video camera set-up and calibration were maintained constant throughout image capturing. For quantification of storage and inflammation, images were analyzed using ImageJ analysis software (NIH), using an appropriate threshold that selected the foreground immunoreactivity above background. This threshold was then applied as a constant to all subsequent images analyzed per batch of animals and reagent used to determine the specific area of immunoreactivity for each antigen in each region. Data were plotted graphically as the mean percentage area of immunoreactivity per field ±s.e.m. for each region. For quantification of cell death, images were analyzed manually and scored for the presence of apoptotic nuclei. Data were plotted graphically as the mean number of apoptotic cells per field ±s.e.m. for each region. All analyses were performed blind to genotype and treatment.
[…] was also quantified by performing immunohistochemistry staining of brain sections of all test and control mice using anti-GFAP antibodies.

[5] = tested on: Cln3^Δex7-8 mice; assay: Lysosomal storage in cerebellum (SCMAS staining); format: in vivo, mouse; settings: 12 months of age
Protocol: as §1
For oral administration, Trehalose was dissolved in drinking water to a final concentration of 2% and changed twice a week. […]
as §5
Non-overlapping images were captured, on three consecutive sections, through each region of interest. […] For quantification of storage and inflammation, images were analyzed using ImageJ analysis software (NIH), using an appropriate threshold that selected the foreground immunoreactivity above background. […]

[6] = tested on: CLN3 1kb mutant human fibroblasts; assay: Glycosphingolipid and lysosomal storage in CLN3 1 kb deletion mutant fibroblasts; format: cell-based
[7] = tested on: human CLN3 disease NPC derived cortical neurons; assay: Glycosphingolipid and lysosomal storage in CLN3 patient iPSC/NPC derived cortical neurons; format: cell-based
[8] = tested on: cln3 morphant zebrafish embryos; assay: Glycosphingolipid/SCMAS storage and eye phenotype in cln3 morphant zebrafish embryos; format: in vivo; settings: miglustat 300 μM from 4 hpf for 88 h
[9] = cited from earlier work
[10] = Miglustat 50 μM during the final week of differentiation

SMILES: CCCCN1C[C@H](O)[C@@H](O)[C@H](O)[C@H]1CO [Miglustat, (2R,3R,4R,5S)-1-butyl-2-(hydroxymethyl)piperidine-3,4,5-triol]
- trehalase-mediated hydrolysis of trehalose to glucose (glucose generated) [1]: only a minimal amount of glucose was generated
- cell death (cleaved CAS-3) in the VPM/VPL region [2]: largely suppressed
- cell death (cleaved CAS-3) in the VPM/VPL region ([2]; listed as miglustat): prevented
- programmed cell death (cleaved caspase-3 reactive cells) ([2]; regions analyzed: VPM/VPL, dLG, S1BF, V1 (FIGS. 1A-D), oral treatment): effective in abating programmed cell death
- microglial activation (CD68) in the VPM/VPL ([3]; FIG. 2A): potently prevented microglial activation; also recorded: undistinguishable from WT mice
- microglial activation (CD68) in the DLG ([3]; FIG. 2B): significantly decreased microglial activation
- CD68 staining in the VPM/VPL ([3]; low concentrations of Miglustat (1.2 g/Kg chow), FIG. 2E): largely reduce CD68 staining
- CD68 staining in the cerebellum ([3]; low concentrations of Miglustat, not shown): partially or largely reduce CD68 staining
- astroglial activation (GFAP staining) in the VPM/VPL region ([4]; 12 months of age, oral, Miglustat even at low doses (FIG. 3E)): largely suppressed
- astrocytosis (GFAP immunoreactivity) in the VPM/VPL ([4]; FIG. 3A): undistinguishable from that of WT mice
- astrocytosis (GFAP immunoreactivity) in the DLG ([4]; FIG. 3B): prevented astrocytosis
- astrocytosis (GFAP) in the S1BF ([4]; FIG. 3C): reduction in astrocytosis, although this did not reach statistical significance
- increased storage in the cerebellum (SCMAS staining) [5]: no consistent effects
- accumulation of SCMAS ([6]; 50 μM miglustat): significantly reduced
- localisation of CtxB (ganglioside GM1) ([6]; 50 μM miglustat): restores sub-plasma membrane localisation
- lysosomal inclusions by EM ([6]; 50 μM miglustat): notable absence of the dark membranous whorl-like inclusions
- peak CtxB fluorescence (confocal line scans) ([6]; 50 μM miglustat): clearly reduces the peak CtxB fluorescence
- swollen mitochondria with abnormal cristae (electron microscopy) ([6]; 50 μM miglustat): normalised
- accumulating GSLs (ganglioside GM1 by CtxB, globosides Gb3/4 by SLxT) ([6]; 50 μM miglustat for 5 days): normalised; also recorded: significant reduction in the accumulating GSLs back to control levels
- elevated lysosomal Ca2+ ([6]; 50 μM miglustat, ionomycin/GPN, Fura 2,AM): restored to healthy control levels
- localisation of CtxB (ganglioside GM1) ([6]; 50 μM miglustat, listed as miglustat): normalisation in localisation of CtxB back to the plasma membrane
- autophagy (CytoID) ([6]; 50 μM miglustat, live cells): normalisation in elevated autophagy
- expansion of the lysosomal system (lysotracker staining) ([6]; 50 μM miglustat, live cells): normalisation in the visible expansion of the lysosomal system
- excitotoxic glutamate induced Ca2+ signalling [7, 10]: normalisation of excitotoxic glutamate induced Ca^2+ signalling
- expansion of the lysosomal and autophagic vacuole systems (lysotracker and cytoID staining) [7, 10]: reduction in expansion of the lysosomal and autophagic vacuole systems
- lipid and protein storage levels (globoside, ganglioside GM1, SCMAS) [7, 10]: normalised; also recorded: reduced lipid and protein storage levels
- lipid localisation [7, 10]: normalisation of lipid localisation
- lysosomal Ca2+ content ([7]; Miglustat 50 μM, ionomycin/GPN, Fura 2,AM): normalisation of lysosomal Ca^2+ content
- fluorescence intensity of glycolipids and of lipofuscin associated SCMAS storage [8]: normalised; also recorded: decrease, particularly in the brain, in fluorescence intensity
- ganglioside GM1 storage within the brain (CtxB line scans) [8]: reduced; also recorded: normalised
- retinal area [8]: restored to wild-type levels
- Solubility in water ([9]; as a free base): (>1000 mg/mL as a free base).
- Solubility in water [9]: Miglustat: Highly soluble in water
